Test results taken from PMC12193579, “Pro-Apoptotic Activity of 1-(4,5,6,7-Tetrabromo-1H-benzimidazol-1-yl)propan-2-one, an Intracellular Inhibitor of PIM-1 Kinase in Acute Lymphoblastic Leukemia and Breast Cancer Cells” (International Journal of Molecular Sciences, 2025).
“Also recorded” adds a separate entry of the source. Read-outs that look alike come from different tables or passages of the source. One block for each compound: values may come before it.

Columns and labels:
[1] = system: mitochondria polarization; parameters: method as in PMID 15566294; conditions: up to a 10 µM concentration; cited from earlier work
Jurkat cells = system: Jurkat cells; parameters: method as in PMID 15566294; conditions: read-out: DC50 value, apoptosis of Jurkat cells; cited from earlier work
LNCaP cell line = system: LNCaP cell line; parameters: method as in PMID 29246854; conditions: 48 h of exposure to 10 μM; cited from earlier work
CCRF-CEM cells [2] = test: cell cycle progression by flow cytometry, CCRF-CEM; format: cell-based, human; conditions: 16 µM, 48 h; control 33%
Description: Since CK2 and PIM kinases regulate cell cycle progression, their inhibition may alter the distribution of cells across different cell cycle phases. […] For control cells, the percentage of G2/M cells was 17%. In addition to those changes, we observed cells in the sub-G1 phase, which are apoptotic cells. Accumulation of cells in this phase reflects DNA degradation characteristic of apoptotic cells. The largest percentage of these cells, i.e., 32% was determined in 16 µM 1-treated cells (Figure 6a,b).
(§1) CCRF-CEM and MCF-7 cells were cultured in 6-well plates and treated with the tested compounds for 48 h. After exposure to the compounds, the cells were collected, washed with cold PBS, and fixed in 70% ethanol at –20 °C for at least 24 h. Subsequently, the cells were washed in PBS and stained according to the procedure previously described by our group. The cellular DNA content was measured by flow cytometry using a BD Accuri C6 Plus flow cytometer (BD Biosciences, San Jose, CA, USA). The resulting DNA histograms were analyzed with BD Accuri C6 Plus software (San Diego, CA, USA) to assess the distribution of cells across different phases of the cell cycle.

PIM-1 kinase = biological target: T1, PIM-1 kinase (Homo sapiens, UniProt P11309); test: radiometric P81 filter isotopic kinase assay, PIM-1; format: biochemical; conditions: for remaining activity at 2 µM: cpd. concentration 2 μM; for remaining activity at 2 µM / remaining activity at 5 µM / remaining activity at 20 µM: read-out: PIM-1 Residual Activity [%]; for remaining activity at 5 µM: cpd. concentration 5 μM; for remaining activity at 20 µM: cpd. concentration 20 μM
T1 construct: made in house
Description: (§2) Synthetic peptide […] served as the substrate for CK2, while peptide […] was used as the substrate for PIM-1.
(§3) The synthesized compounds were evaluated for their inhibitory activity against human CK2α, the human CK2 holoenzyme, and PIM-1 using the P81 filter-based isotopic assay, as previously described. […] The experimental data were fitted to a dose–response curve using non-linear regression analysis (variable slope) Y = Bottom + (Top − Bottom)/(1 + 10^((LogIC50 − X) × HillSlope) equation in GraphPad Prism (Prism 9, version 9.0.1).

CCRF-CEM cells [3] = test: annexin V/propidium iodide apoptosis, flow cytometry, CCRF-CEM; format: cell-based, human; conditions: 48 h, annexin V binding
Description: The results obtained for CCRF-CEM and MCF-7 are shown in Figure 3 and Figure 4, respectively. […] 1, 79.6% of cells were apoptotic.
CCRF-CEM cells were seeded in 24-well plates at a density of 2 × 10^5 cells/mL. The cells were treated with the tested compounds at concentrations of 8, 16, and 32 µM, followed by incubation for 48 h. After treatment, the cells were harvested and processed according to the previously described protocol. Flow cytometric measurements were conducted within 1 h of cell labeling. Viable, necrotic, early apoptotic, and late apoptotic cells were identified using a BD Accuri C6 Plus flow cytometer and analyzed with BD Accuri C6 Plus software, version 1.0.34.1 (BD Biosciences, San Jose, CA, USA).

[4] = system: CCRF-CEM (acute lymphoblastic leukemia); test: MTT-based viability assay, CCRF-CEM; format: cell-based, human; conditions: for IC50: Homo sapiens, CCRF-CEM, 48 h, read-out: IC50 [µM] CCRF-CEM; for SI (selectivity index) CCRF-CEM: IC50 for Vero/IC50 for cancer cells
Description: (§4) 3. The cytotoxicity of the newly obtained inhibitors, i.e., 1, 2, and 4 was tested towards four cell lines, i.e., CCRF-CEM (acute lymphoblastic leukemia ALL), MCF-7 (breast carcinoma), MDA-MB-231 (triple negative breast carcinoma), and Vero (Cercopithecus aethiops kidney).
(§5) The CCRF-CEM (acute lymphoblastic leukemia, ALL) and MDA-MB-231 (triple-negative breast adenocarcinoma) cell lines were obtained from the European Collection of Authenticated Cell Cultures (ECACC), while the MCF-7 (hormone-dependent breast adenocarcinoma) and Vero (Cercopithecus aethiops kidney) cell lines were purchased from the American Type Culture Collection (ATCC, Manassas, VA, USA). CCRF-CEM cells were maintained in RPMI-1640 medium, whereas MCF-7 and MDA-MB-231 cells were cultured in DMEM (Sigma-Aldrich Chemical Company, St. Louis, MO, USA). Vero cells were cultured in minimum essential medium eagle (MEM; Sigma-Aldrich). All media were supplemented with 10% fetal bovine serum (FBS), 2 mM L-glutamine, and antibiotics (100 U/mL penicillin and 100 µg/mL streptomycin) (Sigma-Aldrich). Cells were grown in 75-cm^2 culture flasks (Googlab Scientific, Rakocin, Poland) in a humidified atmosphere containing 5% CO2 at 37 °C. All experiments were performed using exponentially growing cultures. Stock solutions of the test compounds were prepared in DMSO and stored at –80 °C for up to one month.
(§6) Following incubation with the tested compounds, the MTT assay was carried out as previously described. Optical density was measured at 570 nm using a BioTek microplate reader (Winooski, VT, USA). All measurements were performed in at least three independent biological replicates.

CCRF-CEM cells [5] = test: mitochondrial membrane potential (ΔΨm) JC-1 assay, CCRF-CEM; format: cell-based, human; conditions: 16 µM, 48 h
Description: The mitochondrial membrane potential was evaluated by flow cytometry using 5,5′,6,6′-tetrachloro-1,1′,3,3′-tetraethylbenzimidazolocarbocyanine iodide (JC-1; Sigma-Aldrich), as previously described.

MCF-7 (breast carcinoma) = test: MTT-based viability assay, MCF-7; format: cell-based, human; conditions: for IC50: Homo sapiens, read-out: IC50 [µM] MCF-7; for SI (selectivity index) MCF-7: IC50 for Vero/IC50 for cancer cells
Description: as §4, §5, §6

[6] = system: MDA-MB-231 (breast carcinoma); test: MTT-based viability assay, MDA-MB-231; format: cell-based, human; conditions: for IC50: Homo sapiens, read-out: IC50 [µM] MDA-MB-231
Description: as §4, §5, §6

[7] = system: CK2 in CCRF-CEM cells (Ser529 in NF-κB p65); test: PhosFlow analysis of NF-κB p65 Ser529 phosphorylation, CCRF-CEM; format: cell-based, human; conditions: 16 µM, 24 h
Description: CCRF-CEM cells were prepared following the BD PhosFlow™ Protocol for Human PBMCs using NF-κB p65 (pS529)-PE (#558423), BD PhosFlow™ Perm Buffer III (#558050), Cytofix Fixation Buffer (#554655), and Stain Buffer FBS (#554656), all obtained from Becton Dickinson. Flow cytometric analysis was performed using a BD Accuri C6 Plus cytometer (Becton Dickinson) according to the manufacturer’s instructions.

[8] = system: Vero (Cercopithecus aethiops kidney); test: MTT-based viability assay, Vero; format: cell-based; conditions: Chlorocebus sabaeus, 48 h, read-out: IC50 [µM] Vero
Description: as §4, §5, §6

MCF-7 cells = test: cell cycle progression by flow cytometry, MCF-7; format: cell-based, human; conditions: 8 µM, 48 h; control 17%
Description: Additionally, we observed the prolongation of G2/M in MCF-7 treated with 1 at the highest concentration. […] 1 induced G2/M phase arrest in MCF-7 with the highest effect detected for the 16 µM concentration, manifested as 32% cells in that stage, whereas in the control, the percentage of G2/M cells was 22%.
as §1

[9] = system: hormone-sensitive human prostate cancer cell line LNCaP; parameters: method as in PMID 22698781; conditions: cited from earlier work
[10] = biological target: T2, recombinant human CK2 catalytic subunit (rhCK2α) (Homo sapiens, UniProt P68400); test: radiometric P81 filter isotopic kinase assay, CK2α; format: biochemical; conditions: for remaining activity at 2 µM: cpd. concentration 2 μM; for remaining activity at 2 µM / remaining activity at 5 µM / remaining activity at 20 µM: read-out: CK2α Residual Activity [%]; for remaining activity at 5 µM: cpd. concentration 5 μM; for remaining activity at 20 µM: cpd. concentration 20 μM
T2 construct: made in house
Description: as §2, §3

T2 sequence (P68400 whole entry): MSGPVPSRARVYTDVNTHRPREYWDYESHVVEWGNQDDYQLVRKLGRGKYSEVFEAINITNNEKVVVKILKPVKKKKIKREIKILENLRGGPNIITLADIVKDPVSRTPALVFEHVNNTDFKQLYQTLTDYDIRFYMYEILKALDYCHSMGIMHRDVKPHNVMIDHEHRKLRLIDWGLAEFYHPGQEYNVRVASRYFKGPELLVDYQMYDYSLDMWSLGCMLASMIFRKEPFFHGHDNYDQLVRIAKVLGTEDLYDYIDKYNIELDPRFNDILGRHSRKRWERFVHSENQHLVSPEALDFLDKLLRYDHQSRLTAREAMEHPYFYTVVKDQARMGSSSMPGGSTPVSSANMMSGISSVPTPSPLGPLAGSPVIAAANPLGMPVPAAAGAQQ
T1 sequence (P11309 whole entry): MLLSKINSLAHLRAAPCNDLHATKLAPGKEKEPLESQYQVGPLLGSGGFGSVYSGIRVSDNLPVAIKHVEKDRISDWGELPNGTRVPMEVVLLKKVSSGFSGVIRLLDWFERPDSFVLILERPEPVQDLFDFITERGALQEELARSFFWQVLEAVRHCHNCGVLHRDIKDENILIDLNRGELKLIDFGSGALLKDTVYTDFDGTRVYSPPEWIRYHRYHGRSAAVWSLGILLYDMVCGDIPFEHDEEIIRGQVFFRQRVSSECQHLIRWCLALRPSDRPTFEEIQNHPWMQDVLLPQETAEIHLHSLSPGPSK

SMILES: CN(C)c1nc2c(Br)c(Br)c(Br)c(Br)c2[nH]1 [DMAT, 2-Dimethylamino-4,5,6,7-tetrabromo-1H-benzimidazole]
- side effect on mitochondria polarization [1]: does not display any side effect on mitochondria polarization
- DC50 (Jurkat cells): 2.7 µM

SMILES: OCC1OC(n2cnc3c(Br)c(Br)c(Br)c(Br)c32)CC1O [K164, 1-(β-D-2′-deoxyribofuranosyl)-4,5,6,7-tetrabromo-1H-benzimidazole]
- apoptotic cells, LNCaP (LNCaP cell line): 91.8%

SMILES: Brc1c(Br)c(Br)c2[nH]cnc2c1Br [TBBi, 4,5,6,7-tetrabromo-1H-benzimidazole, reference compound]
- CCRF-CEM cells in the S phase (CCRF-CEM cells [2]): 19%
- IC50 (PIM-1 kinase): 0.53 ± 0.04 µM
- apoptotic CCRF-CEM cells (CCRF-CEM cells [3]; 8 µM): 16%
- apoptotic CCRF-CEM cells (CCRF-CEM cells [3]; 16 µM): 44%
- apoptotic CCRF-CEM cells (CCRF-CEM cells [3]; 32 µM): 95%
- IC50 [4]: 17.6 ± 0.67 µM
- CCRF-CEM cells with reduced ΔΨm (CCRF-CEM cells [5]): 37%
- IC50 (MCF-7 (breast carcinoma); MCF7, 48 h): 12.6 ± 2.72 µM
- IC50 ([6]; MDA-MB-231, 48 h): 29.7 ± 2.23 µM
- p65-P-negative CCRF-CEM cells [7]: 28%
- IC50 [8]: 24.8 ± 0.9 µM
- MCF-7 cells in the S phase (MCF-7 cells): 12%
- LD50 against LNCaP [9]: ≈ 20 µM

SMILES: Brc1c(Br)c(Br)c2[nH]nnc2c1Br [TBBt, 4,5,6,7-tetrabromo-1(2)H-benzotriazole]
- DC50 (Jurkat cells): 17 µM

SMILES: Ic1c(I)c(I)c2[nH]cnc2c1I [TIBI, 4,5,6,7-tetraiodo-1H-benzimidazole]
- LD50 against LNCaP [9]: ≈ 20 µM

- IC50 (PIM-1 kinase): 2.41 ± 0.29 µM
- remaining activity at 2 µM (PIM-1 kinase): 58 ± 2.4%
- remaining activity at 5 µM (PIM-1 kinase): 26.4 ± 1.7%
- remaining activity at 20 µM (PIM-1 kinase): 9.3 ± 0.3%
- IC50 [10]: 11.1 ± 0.15 µM
- remaining activity at 2 µM [10]: 70.9 ± 0.9%
- remaining activity at 5 µM [10]: 41.8 ± 2.3%
- remaining activity at 20 µM [10]: 20.1 ± 1.2%
- IC50 ([4]; MTT): 58.2 ± 5.86 µM
- IC50 (MCF-7 (breast carcinoma); MCF7, MTT, 48 h): 18.4 ± 0.41 µM
- IC50 ([6]; MDA-MB-231, MTT, 48 h): 28.2 ± 3.27 µM
SMILES: CC(O)Cn1cnc2c(Br)c(Br)c(Br)c(Br)c21 (stereo not drawn) [compound 2, 1-(4,5,6,7-tetrabromo-1H-benzimidazol-1-yl)propan-2-ol]
- SI (selectivity index) CCRF-CEM [4]: 1.65
- SI (selectivity index) MCF-7 (MCF-7 (breast carcinoma)): 5.21
- SI (selectivity index) MDA-MB-231 ([6]; IC50 for Vero/IC50 for cancer cells): 3.4
- IC50 ([8]; MTT, non-cancerous cells): 96.1 ± 4.76 µM

- inhibition of PIM-1 kinase (in words) (PIM-1 kinase): inactive; also recorded: very weak
- remaining activity at 2 µM (PIM-1 kinase): 82.5 ± 4.2%
- remaining activity at 5 µM (PIM-1 kinase): 67.4 ± 0.7%
- remaining activity at 20 µM (PIM-1 kinase): 62.6 ± 0.8%
- inhibition of CK2 kinase (in words) [10]: inactive; also recorded: very weak
- remaining activity at 2 µM [10]: 102 ± 8.9%
- remaining activity at 5 µM [10]: 89.2 ± 8.6%
- remaining activity at 20 µM [10]: 82.8 ± 15.4%
SMILES: CC(=O)CCn1cnc2c(Br)c(Br)c(Br)c(Br)c21 [compound 3, 4-(4,5,6,7-Tetrabromo-1H-benzimidazol-1-yl)butan-2-one]

- IC50 (PIM-1 kinase): 3.08 ± 0.07 µM
- remaining activity at 2 µM (PIM-1 kinase): 66.9 ± 1.1%
- remaining activity at 5 µM (PIM-1 kinase): 29.1 ± 0.1%
- remaining activity at 20 µM (PIM-1 kinase): 21.4 ± 0.2%
- remaining activity at 2 µM [10]: 72.1 ± 3%
- remaining activity at 5 µM [10]: 21.3 ± 1.9%
- remaining activity at 20 µM [10]: 15.6 ± 0.3%
- IC50 ([4]; MTT): 75.3 ± 10.3 µM
- IC50 (MCF-7 (breast carcinoma); MCF7, MTT, 48 h): 41.9 ± 8.37 µM
- IC50 ([6]; MDA-MB-231, MTT, 48 h): > 200 µM
SMILES: CC(O)CCn1cnc2c(Br)c(Br)c(Br)c(Br)c21 (stereo not drawn) [compound 4]
- SI (selectivity index) CCRF-CEM [4]: 1.75
- SI (selectivity index) MCF-7 (MCF-7 (breast carcinoma)): 3.15
- IC50 ([8]; MTT, non-cancerous cells): 132 ± 19.4 µM
